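Results reflect a 48-hour exposure of cells in 96-well plates to compound at five concentrations. GI50 is the concentration that inhibits growth by half.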 Active and inactive are the calls of the source. Cut-off read from the data, not from the text of the source: active = GI50 up to about 1.1 µM and inactive = higher.
Legend:
Assay in all cases: inhibition of tumour cell growth, NCI panel, 48 h
786-0 = system: 786-0
A498 = system: A498
A549 = system: A549
ACHN = system: ACHN
CCRF-CEM = system: CCRF-CEM
COLO 205 = system: COLO 205
DLD-1 = system: DLD-1
DMS-114 = system: DMS-114
DMS-273 = system: DMS-273
EKVX = system: EKVX
HCC 2998 = system: HCC 2998
HCT-116 = system: HCT-116
HCT-15 = system: HCT-15
HL-60 = system: HL-60
HOP-62 = system: HOP-62
HT-29 = system: HT-29
IGROV-1 = system: IGROV-1
K562 = system: K562
KM-20L2 = system: KM-20L2
LOX IMVI = system: LOX IMVI
LXFL 529 = system: LXFL 529
M14 = system: M14
M19-MEL = system: M19-MEL
MOLT-4 = system: MOLT-4
Malme-3M = system: Malme-3M
NCI-H226 = system: NCI-H226
NCI-H23 = system: NCI-H23
NCI-H460 = system: NCI-H460
OVCAR-3 = system: OVCAR-3
OVCAR-4 = system: OVCAR-4
OVCAR-8 = system: OVCAR-8
RPMI-8226 = system: RPMI-8226
RXF 393 = system: RXF 393
SF-268 = system: SF-268
SF-295 = system: SF-295
SF-539 = system: SF-539
SK-MEL-28 = system: SK-MEL-28
SK-MEL-2 = system: SK-MEL-2
SK-MEL-5 = system: SK-MEL-5
SN12C = system: SN12C
SNB-19 = system: SNB-19
SNB-75 = system: SNB-75
SR = system: SR
SW-620 = system: SW-620
TK-10 = system: TK-10
U-251 = system: U-251
UACC-257 = system: UACC-257
UACC-62 = system: UACC-62
UO-31 = system: UO-31
XF498 = system: XF498
CAKI-1 = system: CAKI-1
HOP-18 = system: HOP-18
HOP-92 = system: HOP-92
KM12 = system: KM12
NCI-H522 = system: NCI-H522
OVCAR-5 = system: OVCAR-5
SK-OV-3 = system: SK-OV-3
SNB-78 = system: SNB-78

Measured: GI50

COC(=O)CC(C(C(=O)OCc1ccccc1)C(C)O)N1C(=O)OCC1c1ccccc1 (stereo unspecified)
> 100 µM: HCT-15
inactive: 786-0 > 100 µM | A498 22.2 µM | A549 44.8 µM | ACHN 63.2 µM | CCRF-CEM 49 µM | COLO 205 48.4 µM | DLD-1 60.4 µM | DMS-114 46.9 µM | DMS-273 66.1 µM | EKVX 62.1 µM | HCC 2998 > 100 µM | HCT-116 > 100 µM | HL-60 34.2 µM | HOP-62 > 100 µM | HT-29 > 100 µM | IGROV-1 69.3 µM | K562 34.4 µM | KM-20L2 83.8 µM | LOX IMVI > 100 µM | LXFL 529 56.1 µM | M14 > 100 µM | M19-MEL 69.2 µM | MOLT-4 29.4 µM | Malme-3M > 100 µM | NCI-H226 31.6 µM | NCI-H23 60.1 µM | NCI-H460 68.2 µM | OVCAR-3 93.5 µM | OVCAR-4 84.1 µM | OVCAR-8 91.6 µM | RPMI-8226 27.6 µM | RXF 393 95.7 µM | SF-268 97.5 µM | SF-295 45 µM | SF-539 > 100 µM | SK-MEL-28 > 100 µM | SK-MEL-2 > 100 µM | SK-MEL-5 42.3 µM | SN12C > 100 µM | SNB-19 75.2 µM | SNB-75 20 µM | SR 38.1 µM | SW-620 > 100 µM | TK-10 > 100 µM | U-251 83 µM | UACC-257 75.7 µM | UACC-62 35.6 µM | UO-31 24.3 µM | XF498 24.1 µM

COc1ccc(/C(=N/O)C(c2ccc(OC)cc2)C2C(=O)Oc3ccccc32)cc1 (stereo unspecified)
inactive: 786-0 > 100 µM | A498 > 100 µM | A549 42 µM | ACHN 70.6 µM | CAKI-1 92 µM | CCRF-CEM > 100 µM | COLO 205 1.66 µM | DLD-1 83.4 µM | DMS-114 26.6 µM | EKVX 53.1 µM | HCC 2998 > 100 µM | HCT-116 58.6 µM | HL-60 52.5 µM | HOP-18 > 100 µM | HOP-92 16.3 µM | HT-29 > 100 µM | IGROV-1 40 µM | K562 71.4 µM | KM12 83.4 µM | LOX IMVI 79.6 µM | LXFL 529 36.3 µM | M14 51.3 µM | M19-MEL 68.5 µM | MOLT-4 > 100 µM | Malme-3M 63.1 µM | NCI-H226 37.2 µM | NCI-H23 40.3 µM | NCI-H460 71.3 µM | NCI-H522 35.6 µM | OVCAR-4 48.6 µM | OVCAR-5 12.7 µM | OVCAR-8 61.7 µM | RPMI-8226 > 100 µM | SF-268 > 100 µM | SF-295 3.13 µM | SF-539 > 100 µM | SK-MEL-28 78.2 µM | SK-MEL-2 38.5 µM | SK-MEL-5 24.8 µM | SK-OV-3 > 100 µM | SN12C 84.7 µM | SNB-75 82.8 µM | SNB-78 > 100 µM | SR > 100 µM | SW-620 > 100 µM | TK-10 > 100 µM | U-251 87.5 µM | UACC-257 34.7 µM | UACC-62 82 µM | UO-31 35.5 µM
71.6 µM: HCT-15

From ChEMBL document CHEMBL1201862, “PubChem BioAssay data set” (2004)
